Source: a melting point compilation (Tetko et al.; mined from patent text by program, amines drawn as free bases though some values may be those of a salt)

SMILES	melting point [°C]
O=C1c2ccccc2C(=O)N1CC(=O)N1c2ccccc2N(Cc2ccc(OCc3ccccc3)cc2)C(=O)[C@H]2CCC[C@H]21 (relative stereo)	179 to 181
CCOC(=O)C1=C(C)Nc2nnnn2C1c1cccc([N+](=O)[O-])c1 (stereo not given)	210 to 212
Cc1ccc2ccc(C(=O)NCc3ccc(Cl)cc3)c(O)c2n1	95 to 98
CC1=NN=C(c2ccc([N+](=O)[O-])cc2)c2cc(Cl)c(Cl)cc2C1	231 to 233
COc1ccc(-c2c(Cl)c(CN3C(=O)CCC3=O)nc3sc4c(c23)CC(C)(C)C(OCc2ccccc2)C4)cc1 (stereo not given)	221 to 223
CC(C)Cc1ccc(C(C)C(=O)Oc2ccc(C(N)=S)cc2)cc1 (stereo not given)	121 to 123
CCS(=O)(=O)N(Cc1cccnc1)c1ccc(Oc2ccccc2)cc1	79 to 80
FC(F)(F)c1cc(CNCc2cc3ccccc3nc2N2CCN(CC3CCCCC3)CC2)cc(C(F)(F)F)c1	54 to 55
O=c1[nH]c2ccc(CCN3CCN(c4ccc5ncccc5c4)CC3)cc2o1	200
O=C1Nc2ccccc2CCC1Cl (stereo not given)	163 to 167
CC(C)(C)OC(=O)NCc1cccc(C(=O)N[C@H]2C[C@H](C(=O)O)Nc3cc(Cl)cc(Cl)c32)c1 (relative stereo)	192 to 193
CC(=CCCC(C)C1CCC2(C)C3=CCC4C(C)(CCC5(OCCO5)C4(C)C)C3=CCC12C)CO (stereo not given)	165 to 168
COc1ccc(-c2nc(-c3[nH]cc(C)c3C)[nH]c2-c2ccc(OC)cc2)cc1	134
O=C(O)Cc1csc(-c2ccccc2O)n1	173 to 174
O=C1CCCC(=O)C1Cc1ccccc1CCCCl	143 to 145
COc1ccc(Nc2ccncc2)c(C(=O)N2CCCCC2)c1	176 to 178
CCOC(=O)c1cccn1CCN1CCC(=C2c3ccccc3CCn3ccnc32)CC1	158
O=C(NC(=O)c1c(Cl)cccc1Cl)Nc1ccc(-c2ccc(Cl)cc2)cn1	230 to 233
CC(C)(C)C(NC(=O)c1ccc(Cl)cc1)NC(=C[N+](=O)[O-])Nc1cccnc1 (stereo not given)	195 to 196
COC(=O)CCC#Cc1ccc(C(F)(F)F)cc1N	42
COc1ccc(CCNCC(O)COc2cccc3nn(Cc4ccccc4)cc23)cc1OC (stereo not given)	101 to 102
COc1ccc2cc3[nH]cc(C#N)c(=O)c3cc2c1	> 260
O=c1[nH]c2cccc(OCCN3CCc4ccccc4C3)c2[nH]c1=O	> 250
CC(C)(C)OC(=O)NCCCCC(=O)Nc1ccc(O)c(C(=O)O)c1	181

SMILES	melting point [°C]
CCOP(=O)(OCC)c1c(-c2c(OC)ccc3ccccc23)c(C)c2c(c1-c1ccccc1)COC2	54.1 to 56
NC(=O)c1ccc(F)c2c1CC(NCCCc1c[nH]c3ccc(F)cc13)CO2 (stereo not given)	122
O=C(O)COc1ccc2cc(CNC(=O)c3cc(-c4ccc(Cl)cc4)oc3C(F)(F)F)ccc2c1	194 to 196
O=C(O)Cc1c(C(=O)c2cc(C(=O)O)no2)[nH]c2ccc(Cl)cc12	200 to 205
C=COCCN1C(=O)CN(c2ccccc2)C1=O	119 to 120
CCOC(=O)c1nc2scc(C(=O)O)c2c(=O)[nH]1	258
O=C(c1cccs1)c1cnn2c(-c3cccc(NC(=O)C4CCNCC4)c3)ccnc12	159 to 161
C#CCn1c(=O)n(C2CCN(C(=O)OCC)CC2)c2ccc(Cl)cc21	126
NS(=O)(=O)c1ccc(NN=C2C(=O)Nc3ccc(S(N)(=O)=O)cc32)cc1	> 250
NC(=O)C(c1ccc(C(=O)O)cc1)C(Cc1ccccc1)c1ccccc1N1CCCCC1 (stereo not given)	214 to 215
CON=CC1=CCCN(C(=O)Oc2ccc(C(C)(C)CC(C)(C)C)cc2)C1	91 to 93
Cc1oc(-c2ccccc2)nc1COc1ccc(CCCC2OC(=O)NC2=O)cc1O (stereo not given)	162 to 164
CCOC(=O)c1ccc(CC(=O)NC(CC(C)C)c2ccccc2N2CCCCC2)cc1OCC (stereo not given)	111 to 112
CC(C)(CO)c1ccc2c(c1)OC(C(F)(F)F)C(C(=O)O)=C2 (stereo not given)	229 to 230
CC1CCc2nc(Cl)nc(-c3ccc(F)cc3)c2C1 (stereo not given)	106 to 108
C=CCN(CC=C)C(=O)n1cnc(S(=O)CC)n1 (stereo not given)	41 to 43
Cc1cc(NS(=O)(=O)c2ccccc2)cnc1CCCC(=O)O	169 to 179
N#Cc1ncn2c1N(C(=O)CN1CCN(C(c3ccccc3)c3ccc(Cl)cc3)CC1)CC=C2c1cccc(C(F)(F)F)c1 (stereo not given)	105 to 107
O=C(Nc1cccc(S(=O)(=O)N2CCOCC2)c1)c1cnn2c(C(F)(F)F)cc(-c3ccc(C(F)(F)F)cc3)nc12	233
CC(=O)Nc1cccc(-c2nn(Cc3oc4ccccc4c(=O)c3-c3ccccc3)c3ncnc(N)c23)c1	122 to 123
N=c1sc2ccccc2n1C(C=O)c1ccc(Cl)cc1 (stereo not given)	114
N#CC1=C(c2cccs2)Nc2n[nH]cc2C1c1cccc2nsnc12 (stereo not given)	254
C[C@H](Cc1ccc(-c2cc(F)c(C#N)c(F)c2)cc1)c1ccccc1	60.7 to 62.2
COC(=O)CCC/C=C(\c1cc(F)cc(C(F)(F)F)c1)c1cc(C)c2on(C)c(=O)c2c1	97.5 to 98.5

SMILES	melting point [°C]
CC(C)NC(=O)c1c(NC(=O)c2cc(C(F)(F)F)nn2-c2ncccc2Cl)ccc2ncccc12	182 to 183
O=C(CSc1ccc(O)cc1)NC(=O)c1ccccc1	149 to 151
CN(Cc1ccc(NC(=O)C2=Cc3cc(-c4ccc5c(c4)OCCCO5)ccc3S(=O)(=O)CC2)cc1)C1CCOCC1	242 to 245
Cn1c(C2CC2)nc2c(O[C@@H]3c4ccccc4C[C@H]3O)cc(C(=O)O)cc21 (relative stereo)	132 to 134
ON=C1CCC(c2ccccc2F)c2ccccc21 (stereo not given)	120
NCc1ccc2c(c1)c(C1CCN(CCN3CCNC3=O)CC1)cn2-c1ccc(F)cc1	171 to 175
CCCn1c(=O)c(/C=C/C(=O)OCC)c2n(c1=O)CCS2	140 to 141
Cc1scc2c1C(=O)Nc1ccccc1N2C(=O)Cl	235 to 236
CCCN(CCCN1CCN(c2cccc(Cl)c2Cl)CC1)C1CCc2ncsc2C1 (stereo not given)	110
CCOC(=O)COc1cccc(Cl)c1	39 to 40
Cc1cccc(COc2cccc(COc3ccc4ccccc4n3)c2)c1C(=O)O	68 to 72
CC=CCOc1ccc(C)c2c1C(=O)CC2	87.5 to 92
COc1ccccc1-c1ccc(C)n1CC[C@H]1C[C@H](O)CC(=O)O1 (relative stereo)	112 to 114
OCC1OC(n2cnc3c(NCCc4csc5ccc(Cl)cc45)ncnc32)C(O)C1O (stereo not given)	167 to 169
CC(=O)c1ccc(C(=O)Nc2ccc(-n3nc(C(F)(F)F)cc3C(F)(F)F)cc2)cc1	203 to 204
CCC(=O)N1CCC(COc2cccc3nc(C)c(C(=O)O)c(N)c23)CC1	168 to 170
O=C(c1ccccc1OCCCCl)c1cccc2[nH]ccc12	94
Fc1cccc(Cl)c1CSc1nc2cnccc2[nH]1	224 to 226
Cc1cccc(NC(=O)NC2N=C(c3ccccc3)c3ccsc3N(C)C2=O)c1 (stereo not given)	128 to 130
COc1cc(COc2nn(-c3ccccc3)cc2CC(=O)O)ccc1OCc1nc(-c2ccccc2)oc1C	147 to 148
O=C(O)CCc1ccc(CCNS(=O)(=O)c2ccccc2)cc1	102 to 103
CC(C)(C=O)C(=O)C(C)(Cc1ccc(C(C)(C)C)cc1)C(=O)O (stereo not given)	116 to 118
Nc1nc(Cn2ncc3cc(C(=O)NC[C@H](NS(=O)(=O)c4cccc5ccccc45)C(=O)O)ccc32)cc(=O)[nH]1	94 to 95
CC(Cc1ccc(-c2ncc(NC(=O)C(F)(F)F)o2)cc1)N1CC(c2cccc(Cl)c2)OC1=O (stereo not given)	163 to 164

SMILES	melting point [°C]
Sc1nc2cc3ccccc3cc2o1	101 to 102
COc1cc(O)c(C(=O)c2ccccc2)cc1CN(C)C	69
C=C(C(=O)c1cc(-c2cccs2)ccc1OC)c1ccc(C#N)cc1	86 to 88
O=C(O)c1cc(OCCCCCCc2cccc(OCc3ccccc3)c2OCc2ccccc2)ccc1O	97 to 100
O=C(N1CCCCC12CCc1ccccc1C2=O)C(F)(F)F (stereo not given)	97 to 100
CC1=C(C(=O)OC(CN2CCCCC2)c2ccccc2)C(c2cccc([N+](=O)[O-])c2)n2ccnc2N1 (stereo not given)	205 to 206
O=C(O)C1=Cc2cccc(Cl)c2OC1C(F)(F)F (stereo not given)	224 to 226
COc1ccc(-c2csc(Nc3cccc4ccccc34)n2)cc1OC	244 to 246
CNC(=O)ON=C(C(=O)N(C)C)C(C)=NOC	172 to 173
CCOC(=O)c1csc(-c2cccnc2)n1	73 to 75
CCC1(C)C(=O)N=C(SCc2ccccc2N(C)C)N1C(C)=O (stereo not given)	83 to 85
CCCCCCCCCCCCCCCCCCOc1ccc(OCc2ccccc2)c(C(=O)OC)c1	52 to 54
CCOC(=O)c1cc(N2C(=O)C3=C(CCCC3)C2=O)ccc1O	90
CCCCc1nc2c(N)nc3ccc(OCCC4CCN(C(=O)C5CCCC5)CC4)cc3c2n1C	147 to 150
CNC(=O)ON=C(SCC(N)=O)C(C)(C)[N+](=O)[O-]	125 to 127
CC(C)C(NC(=O)C(C)(N)c1ccc2ccccc2c1)C(=O)Nc1nn(C(=O)OCc2ccccc2)c(=S)s1 (stereo not given)	125 to 132
CC(C)(C)OC(=O)N1CCN(Cc2ccc([N+](=O)[O-])cc2)CC1	99 to 100
COc1cc2c(cc1OCc1ccccc1)CC(C)(C)N(C(=O)c1cc(OC)c(OC)c(OC)c1)C2C (stereo not given)	175 to 177
Cc1ccc2c(c1)-n1cc(C(=O)O)nc1CO2	281 to 285
COCC(=S)Nc1c(Cl)c(C)cc2nc(OC)c(OC)nc12	174 to 176
CC=CCSc1cc(C(=O)O)cc([N+](=O)[O-])c1-c1ccccc1	138 to 140
Cn1cc(C(=O)O)c(Nc2ccc(F)cc2F)cc1=O	253 to 255
CCOc1ccc(-c2ccc(C#CC3(O)CN4CCC3CC4)cc2)cc1 (stereo not given)	255 to 256
